{
  "source": "patent EP0786252A1",
  "about": "(priority 1994, dated 1996)",
  "key": {"[1]": {"test_system": "lymphocytic leukemia P388 cells", "assay": "Antiproliferative activity against drug-resistant tumor cells (cell count after 72 hours)", "format": "cell-based", "procedure": "(§1) Compound (I) was tested for its antiproliferative activity against lymphocytic leukemia P388 cells, adriamycin-resistant P388 cells (P388/ADM), cisplatin-resistant P388 cells (P388/CDDP), cyclophosphamide-resistant P388 cells (P388/CPM), and mitomycin C-resistant P388 cells (P388/MMC), in the manner described below.\nP388 cells were suspended in an RPMI-1640 medium containing 10 % fetal calf serum, 100 units/ml penicillin, 100 µg/ml streptomycin and 20 µM 2-mercaptoethanol at a concentration of 3 x 10^4 cells/ml, and 0.1 ml of the cell suspension was put into each well of a 96-well microplate. The cells were incubated in a carbon dioxide incubator (5 % carbon dioxide) overnight at 37°C, and 0.05 ml/well of a compound (I) that had been suitably diluted with the medium was added to each well.\n(§2) The cells were further incubated in the carbon dioxide incubator for 72 hours, then the culture supernatant was removed, and the number of the cells was counted using a cell counter. The number of non-treated cells was compared with that of cells treated with the compound (I), from which was obtained the concentration of the chemical that inhibited 50 % of the cell growth. This is referred to as IC50."}, "[2]": {"test_system": "mitomycin C-resistant P388 cells (P388/MMC)", "assay": "Antiproliferative activity against drug-resistant tumor cells (cell count after 72 hours)", "format": "cell-based", "procedure": "as §1\n(§3) P388 cells were suspended in an RPMI-1640 medium containing 10 % fetal calf serum, 100 units/ml penicillin, 100 µg/ml streptomycin and 20 µM 2-mercaptoethanol at a concentration of 3 x 10^4 cells/ml, and 0.1 ml of the cell suspension was put into each well of a 96-well microplate.\nas §2\n(§4) For the others, P388/ADM cells, P388/CDDP cells, P388/CPM cells and P388/MMC cells, IC50 of the compound (I) was obtained in the same manner as above."}, "[3]": {"test_system": "cyclophosphamide-resistant P388 cells (P388/CPM)", "assay": "Antiproliferative activity against drug-resistant tumor cells (cell count after 72 hours)", "format": "cell-based", "procedure": "as §1, §3, §2, §4"}, "[4]": {"test_system": "adriamycin-resistant P388 cells (P388/ADM)", "assay": "Antiproliferative activity against drug-resistant tumor cells (cell count after 72 hours)", "format": "cell-based", "procedure": "as §1, §3, §2, §4"}, "[5]": {"test_system": "cisplatin-resistant P388 cells (P388/CDDP)", "assay": "Antiproliferative activity against drug-resistant tumor cells (cell count after 72 hours)", "format": "cell-based", "procedure": "as §1, §3, §2, §4"}, "[6]": {"test_system": "ddY mice", "assay": "Acute toxicity, intravenous administration", "format": "in vivo", "conditions": "male ddY mice; for Death Rate: 30 days", "from_the_text": "(§5) Compound (I) was intravenously administered to ddY mice (male; body weight, 19 to 21 g). 30 days after the administration, LD50 and LD10 were obtained through probit analysis."}, "[7]": {"assay": "Acute toxicity, intravenous administration", "format": "in vivo", "conditions": "mouse, in vivo, male ddY mice, 30 days after administration, probit analysis", "from_the_text": "as §5"}},
  "note": "Where two headings read alike, the source gives them in different places.",
  "data": [
    {"smiles": "COc1cccc2c1C(=O)c1c(O)c3c(c(O)c1C2=O)C[C@@](O)(C(=O)CO)C[C@@H]3O[C@H]1C[C@H](N)[C@H](O)[C@H](C)O1", "note": "[ADM, Adriamycin]", "values": [
      {"measurement": "IC50", "setting": "[1]; Mus musculus, P388 cells, 72 hours incubation, read-out: IC50", "result": 6.62, "unit": "nM"},
      {"measurement": "IC50", "setting": "[2]; Mus musculus, P388/MMC cells, 72 hours incubation, read-out: IC50", "result": 14.7, "unit": "nM"},
      {"measurement": "IC50", "setting": "[3]; Mus musculus, P388/CPM cells, 72 hours incubation, read-out: IC50", "result": 5.79, "unit": "nM"},
      {"measurement": "IC50", "setting": "[4]; Mus musculus, P388/ADM cells, 72 hours incubation, read-out: IC50", "result": 571, "unit": "nM"},
      {"measurement": "IC50", "setting": "[5]; Mus musculus, P388/CDDP cells, 72 hours incubation, read-out: IC50", "result": 18.1, "unit": "nM"}
    ]},
    {"smiles": "[NH2][Pt]([NH2])([Cl])[Cl]", "note": "[CDDP, Cisplatin]", "values": [
      {"measurement": "IC50", "setting": "[1]; P388 cells, 72 hours incubation, read-out: IC50", "result": 75.4, "unit": "nM"},
      {"measurement": "IC50", "setting": "[2]; P388/MMC cells, 72 hours incubation, read-out: IC50", "result": 1090, "unit": "nM"},
      {"measurement": "IC50", "setting": "[3]; P388/CPM cells, 72 hours incubation, read-out: IC50", "result": 504, "unit": "nM"},
      {"measurement": "IC50", "setting": "[4]; P388/ADM cells, 72 hours incubation, read-out: IC50", "result": 88.3, "unit": "nM"},
      {"measurement": "IC50", "setting": "[5]; P388/CDDP cells, 72 hours incubation, read-out: IC50", "result": 4080, "unit": "nM"}
    ]},
    {"smiles": "COC(=O)c1c(C)[nH]c2c(OC(=O)N3CCN(C)CC3)cc3c(c12)C(CBr)CN3C(=O)c1cc2cc(OC)c(OC)c(OC)c2[nH]1", "note": "(stereo not shown) [Compound 1]", "values": [
      {"measurement": "IC50", "setting": "[1]; Mus musculus, P388, 72 h", "result": 8.17, "unit": "nM"},
      {"measurement": "Mean Survival Time", "setting": "[6]; Dose 0.48 mg/kg", "result": "No died"},
      {"measurement": "Death Rate", "setting": "[6]; Dose 0.48 mg/kg", "result": "0/20"},
      {"measurement": "Mean Survival Time", "setting": "[6]; Dose 0.57 mg/kg", "result": "11.6 +/- 3.4 days +/- SD"},
      {"measurement": "Death Rate", "setting": "[6]; Dose 0.57 mg/kg", "result": "2/20"},
      {"measurement": "Mean Survival Time", "setting": "[6]; Dose 0.69 mg/kg", "result": "11.6 +/- 1.5 days +/- SD"},
      {"measurement": "Death Rate", "setting": "[6]; Dose 0.69 mg/kg", "result": "3/20"},
      {"measurement": "Mean Survival Time", "setting": "[6]; Dose 0.82 mg/kg", "result": "8.3 +/- 1.8 days +/- SD"},
      {"measurement": "Death Rate", "setting": "[6]; Dose 0.82 mg/kg", "result": "10/20"},
      {"measurement": "Mean Survival Time", "setting": "[6]; Dose 0.99 mg/kg", "result": "6.8 +/- 1.6 days +/- SD"},
      {"measurement": "Death Rate", "setting": "[6]; Dose 0.99 mg/kg", "result": "17/20"},
      {"measurement": "Mean Survival Time", "setting": "[6]; Dose 1.2 mg/kg", "result": "5.6 +/- 1.8 days +/- SD"},
      {"measurement": "Death Rate", "setting": "[6]; Dose 1.2 mg/kg", "result": "20/20"},
      {"measurement": "LD10", "setting": "[6]; 30 days after administration, probit analysis", "result": 0.63, "unit": "mg/kg"},
      {"measurement": "LD50 at 720 h", "setting": "[7]", "result": 0.81, "unit": "mg/kg"},
      {"measurement": "IC50", "setting": "[2]; Mus musculus, P388, 72 h", "result": 15.3, "unit": "nM"},
      {"measurement": "IC50", "setting": "[3]; Mus musculus, P388, 72 h", "result": 6.34, "unit": "nM"},
      {"measurement": "IC50", "setting": "[4]; Mus musculus, P388/ADM, 72 h", "result": 15.6, "unit": "nM"},
      {"measurement": "IC50", "setting": "[5]; Mus musculus, P388, 72 h", "result": 19.8, "unit": "nM"}
    ]},
    {"smiles": "CO[C@@]12[C@H](COC(N)=O)C3=C(C(=O)C(C)=C(N)C3=O)N1C[C@@H]1N[C@@H]12", "note": "[MMC, Mitomycin C]", "values": [
      {"measurement": "IC50", "setting": "[1]; Mus musculus, P388, 72 h", "result": 40.2, "unit": "nM"},
      {"measurement": "IC50", "setting": "[2]; Mus musculus, P388, 72 h", "result": "> 300", "unit": "nM"},
      {"measurement": "IC50", "setting": "[3]; Mus musculus, P388, 72 h", "result": 94.4, "unit": "nM"},
      {"measurement": "IC50", "setting": "[4]; Mus musculus, P388/ADM, 72 h", "result": 56.9, "unit": "nM"},
      {"measurement": "IC50", "setting": "[5]; Mus musculus, P388, 72 h", "result": 186, "unit": "nM"}
    ]}
  ]
}
